Consider 18 compounds from patent US7241763B2, “3-furanyl analogs of toxoflavine as kinase inhibitors” (priority 2002, dated 2007).

For one data set, the target named is T1, CDC25B (Homo sapiens, UniProt P30305).
T1 sequence (P30305 1-580): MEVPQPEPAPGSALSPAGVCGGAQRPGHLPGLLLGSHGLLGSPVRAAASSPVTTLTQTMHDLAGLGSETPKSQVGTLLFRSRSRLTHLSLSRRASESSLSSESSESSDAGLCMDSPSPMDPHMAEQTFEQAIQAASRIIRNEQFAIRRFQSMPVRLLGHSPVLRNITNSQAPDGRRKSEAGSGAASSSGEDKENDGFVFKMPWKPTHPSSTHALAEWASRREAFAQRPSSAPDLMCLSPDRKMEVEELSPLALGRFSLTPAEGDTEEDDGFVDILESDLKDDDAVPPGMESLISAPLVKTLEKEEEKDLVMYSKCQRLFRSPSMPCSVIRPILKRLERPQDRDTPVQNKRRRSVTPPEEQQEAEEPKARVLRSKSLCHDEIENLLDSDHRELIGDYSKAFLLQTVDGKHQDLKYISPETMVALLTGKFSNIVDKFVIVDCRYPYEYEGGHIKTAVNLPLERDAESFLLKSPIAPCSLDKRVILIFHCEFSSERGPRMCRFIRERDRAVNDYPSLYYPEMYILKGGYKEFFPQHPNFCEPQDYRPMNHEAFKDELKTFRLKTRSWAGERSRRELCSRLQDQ
Description: In vitro inhibition of CDC25B using the fluorogenic substrate 3-OMFP (CDC25B WT, Ex. C5). In kind it is biochemical. To be noted: 3-OMFP substrate, 1 hour room temperature; read-out: CDC25B WT (Ex. C5): pIC50 values (converted). As to the method: In Vitro Inhibition of CDC25B using the Fluorogenic Substrate 3-OMFP
CDC25B phosphatase activity is assessed using the fluorogenic substrate 3-O-methyl-flurorescein-phosphate (3-OMFP). The phosphatase-reaction is performed for 1 hour at room temperature in a black microtiter plate in a volume of 50 μl. The reaction mixture contains 4 μg/mlCDC25B, 15 μM (3-OMFP), 15 mM Tris, 50 mM NaCl, 1 mM DTT, 1 mM Na2EDTA at pH 8.0 and 0.1% DMSO solution at 10^−5 M and the hits are tested in the same conditions in a full dose/response from 10^−5, 3.10^−6, 10^−6 and 3.10^−7 M. The enzymatic activity is determined by measuring the fluorescent signal at 485 nm (ex.) and 538 (em.).

Data set [1] has as its target T2, AKT3 (Homo sapiens, UniProt Q9Y243). In words: In vitro inhibition of AKT3 using a filter assay (AKT3 pep., Ex. C3). It counts as biochemical. To be noted: histone H2B substrate, filter assay, 25° C. 3 hrs; read-out: AKT3 pep. (Ex. C3): pIC50 values (converted). As to the method: In Vitro Inhibition of AKT3 using a Filter Assay
In the present AKT3 filter assay, a kinase substrate consisting of a fragment of histone H2B, is incubated with the aforementioned protein in the presence of (^33P) radiolabeled ATP. The (^33P)phosporylated substrate binds to a phosphocellulose cation exchange filter, that can easily be removed from the incubation mixture and counted using a microplate scintillation counter.
AKT3 filter assays were performed at 25° C. for 3 hrs in the presence of 25 mM Hepes, pH 7.0, containing 15 mM MgCl2, 1 mM DTT Each assay was performed in a 100 μl reaction volume containing 111 nM AKT3 (diluted in 25 mM Hepes, pH 7.0, containing 15 mM MgCl2, 1 mM DTT) and the 2.5 μM Histone H2B and 2 nM ATP-P^32. The reaction was terminated by addition of 100 μl 75 mM H3PO4, 90 μl of the assay mixture was filtered through Phosphocellulose cation exchange paper. After five times washing with […] H3PO4, the filterpaper was counting in a microtiterplate scintillation counter.

The target in data set [2] is T2, AKT3. In words: Cellular inhibition of AKT3 using an ELISA (AKT cel, Ex. C6). On the set-up: endogenous in cells; host or cells: MDA-MB 231. It counts as cell-based. To be noted: MDA-MB 231 cells, phosphorylated MAPK ELISA, 30 minutes with compound; read-out: AKT cel (Ex. C6): pIC50 values (converted). As to the method: Cellular Inhibition of AKT3 using an ELISA
The human breast adenocarcinoma cell line (MDA-MB 231) was used in an phosphospecific antibody cell ELISA (PACE) to assess the inhibitory effect of the compounds on AKT3 mediated phosphorylation of mitogen-activated protein kinase (MAPK). In the experiments the MDA-MB 231 cells were serum starved for 24 hours (5% CO2; 37° C.). Subsequently, the cells are incubated at room temperature for 2 hours with 20 μM (in serum free medium) of the phosphatidylinositol 3-kinase inhibitor Ly294002 (Alexis, San Diego, Calif.) prior to the incubation for 30 minutes with the compounds at a final concentration ranging from 1 nM to 3 μM. After fixation (with 4.5% formaldehyde) for 20 minutes and washing with PBS (0.1M) the cells were successively incubated with for 5 minutes with 0.1% Triton X-100 in PBS, for 20 minutes with 0.6% H2O2 and 1 hour with a 2% BSA solution as blocking buffer. […] The OD (490–655 nm) reflected the amount of phosphorylated MAPK and the pIC50 of the compounds was based on their effect with respect to blanco (0.1% DMSO) or an internal reference compound treatment.

The subject of another data set is A2780 cell. In words: Cytotox/survival of A2780 cell after 3 days. The note with it: Homo sapiens, 72 h; A2780 ovarian carcinoma cell line, 3 days; read-out: Cytotox/survival of A2780 cell after 3 days - pIC50 values (converted). In kind it is cell-based. As for the experimental part:
In an alternative assay, the growth inhibitory effect of the compounds was tested on the ovarian carcinoma cell line A2780 using art known cytotoxicity assays such as LIVE/DEAD (Molecular Probes) or MTT.

Some results are limits rather than exact numbers.

T2 sequence (Q9Y243 whole entry, the tested form may be a part): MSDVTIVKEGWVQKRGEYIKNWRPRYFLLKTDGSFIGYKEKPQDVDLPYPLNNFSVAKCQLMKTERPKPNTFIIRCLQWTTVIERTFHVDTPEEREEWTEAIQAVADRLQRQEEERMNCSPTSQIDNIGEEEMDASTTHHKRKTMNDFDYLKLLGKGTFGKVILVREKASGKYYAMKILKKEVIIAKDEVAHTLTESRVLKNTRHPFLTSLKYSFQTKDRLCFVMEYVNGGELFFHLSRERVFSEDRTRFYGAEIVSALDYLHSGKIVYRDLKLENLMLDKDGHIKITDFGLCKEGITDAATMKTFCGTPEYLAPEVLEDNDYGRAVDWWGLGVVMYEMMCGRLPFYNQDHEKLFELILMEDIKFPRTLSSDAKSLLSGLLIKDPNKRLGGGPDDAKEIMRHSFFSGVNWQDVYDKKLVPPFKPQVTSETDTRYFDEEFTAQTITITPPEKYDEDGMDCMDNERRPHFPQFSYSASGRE

What is called melting point is the temperature, or range, at which the solid turns liquid. As for `Cn1nc(-c2ccc(-c3cccc(Cl)c3)o2)nc2c(=O)n(C3CCN(Cc4ccccc4)CC3)c(=O)nc1-2`, the melting point lay in the range of 210.4 to 241 °C.

`CN(CCO)Cc1ccc(-c2ccc(-c3nc4c(=O)n(C)c(=O)nc-4n(C4CCCC4)n3)o2)cc1` [Compound 107] showed a melting point greater than 250 °C. In addition, the IC50 at CDC25B is 16 nM. On AKT3 [1], the IC50 is 39.5 nM. Also, at AKT3 [2], the IC50 is 95.7 nM. Further, the IC50 in the data set on A2780 cell was 60.8 nM.

Take `Cn1c(=O)nc2n(C3CCN(S(N)(=O)=O)CC3)nc(-c3ccc(-c4cccc(Cl)c4)o3)nc-2c1=O` [Compound 114]: the melting point is greater than 250 °C. The IC50 at CDC25B is 15.2 nM. In addition, the IC50 on AKT3 [1] is 45.2 nM. The IC50 on AKT3 [2] is 187 nM. In addition, in the data set with A2780 cell, the IC50 was 110 nM.

On to `Cn1c(=O)nc2n(C3CCCC3)nc(-c3ccc(-c4ccc(S(=O)(=O)N5CCOCC5)cc4)o3)nc-2c1=O` [Compound 93], for which the melting point is greater than 250 °C. In addition, the IC50 at CDC25B was 11 nM. For the same compound, the IC50 on AKT3 [1] was 53.6 nM. The IC50 at AKT3 [2] was 471 nM. Also, the IC50 in the data set on A2780 cell was 52.8 nM.

Compound `Cn1c(=O)nc2n(C3CCNCC3)nc(-c3ccc(-c4cccc(Cl)c4)o3)nc-2c1=O` [Compound 96] registered a melting point greater than 250 °C. For the same compound, the IC50 on CDC25B is 9.18 nM. The IC50 at AKT3 [1] was 62.1 nM. At AKT3 [2], the IC50 is 3.41 nM. In the data set with A2780 cell, the IC50 was 10 nM.

As for `CC(c1ccccc1)n1nc(-c2ccc(-c3cccc(Cl)c3)o2)nc2c(=O)n(C)c(=O)nc1-2` (stereo not drawn) [Compound 67], the IC50 on CDC25B is 21.3 nM; at AKT3 [1] it was 161 nM; on AKT3 [2] it was 716 nM; with A2780 cell it was 196 nM.

Regarding `Cn1c(=O)nc2n(C3CCCC3)nc(-c3ccc(-c4ccc(CN5CCOCC5)cc4)o3)nc-2c1=O` [Compound 94], the melting point stood at 255 °C. Moreover, the IC50 on CDC25B was 11.2 nM. Also, the IC50 at AKT3 [1] was 57.3 nM. In addition, on AKT3 [2], the IC50 is 63.8 nM. Further, in the data set with A2780 cell, the IC50 is 53 nM.

With `Cn1c(=O)nc2n(C3CCCC3)nc(-c3ccc(-c4ccc(CNCCO)cc4)o3)nc-2c1=O` [Compound 113], the melting point amounted to 240 °C. Besides, the IC50 at CDC25B is 14.2 nM. The IC50 at AKT3 [1] was 32.5 nM. In addition, at AKT3 [2], the IC50 was 34.8 nM. The IC50 with A2780 cell was 45.1 nM.

For `Cn1c(=O)nc2n(C3CCCC3)nc(-c3ccc(-c4ccc(CN5CCC(N)CC5)cc4)o3)nc-2c1=O` [Compound 37], the figures for the IC50 at AKT3 [1], on AKT3 [2] and in the data set on A2780 cell were 51.8 nM, 34.4 nM and 67.5 nM, respectively.

Consider `Cn1c(=O)nc2n(C3CCCC3)nc(-c3ccc(-c4ccc(CN5CCNCC5)cc4)o3)nc-2c1=O` [Compound 105], for which the melting point was greater than 276.5 °C. In addition, the IC50 at CDC25B was 16.6 nM. In addition, the IC50 at AKT3 [1] was 115 nM. Besides, the IC50 at AKT3 [2] was 98.2 nM. Further, in the data set with A2780 cell, the IC50 is 54.5 nM.

As for `Cn1nc(-c2ccc(-c3ccc(S(=O)(=O)N4CCOCC4)cc3)o2)nc2c(=O)n(C)c(=O)nc1-2`, the melting point fell in the range of 264.3 to 273.4 °C.

Compound `Cn1c(=O)nc2n(C3CCCC3)nc(-c3ccc(-c4ccc(CN5CCN(CCO)CC5)cc4)o3)nc-2c1=O` [Compound 106] had a melting point of 175 °C. Also, the IC50 at CDC25B was 15.6 nM. Further, the IC50 on AKT3 [1] is 84.3 nM. In addition, the IC50 at AKT3 [2] was 102 nM. The IC50 in the data set with A2780 cell was 70.3 nM.

The compound `Cn1c(=O)nc2n(C3CCCC3)nc(-c3ccc(-c4cccc(CN5CCOCC5)c4)o3)nc-2c1=O` [Compound 98] gave a melting point of 155 °C. Also, on CDC25B, the IC50 is 15.1 nM. Besides, the IC50 on AKT3 [1] is 107 nM. Also, the IC50 on AKT3 [2] is 111 nM. The IC50 in the data set with A2780 cell is 107 nM.

In turn, `Cn1c(=O)nc2n(C3CCCC3)nc(-c3ccc(-c4ccc(CN5CCC(O)CC5)cc4)o3)nc-2c1=O` [Compound 103] yielded a melting point greater than 250 °C. Besides, the IC50 on CDC25B was 16 nM. In addition, at AKT3 [1], the IC50 was 85.5 nM. In addition, on AKT3 [2], the IC50 was 65.5 nM. In the data set with A2780 cell, the IC50 is 60.8 nM.

In turn, `Cn1nc(-c2ccc(-c3cccc(CN4CCOCC4)c3)o2)nc2c(=O)n(C)c(=O)nc1-2` [Compound 1] came in with a melting point of 209.3 to 219.8 °C. Also, at CDC25B, the IC50 was less than 1 nM. The IC50 at AKT3 [1] is 32.1 nM. Besides, on AKT3 [2], the IC50 was 62.1 nM. Moreover, the IC50 in the data set on A2780 cell was 61.9 nM.

With `CC(C)n1nc(-c2ccc(-c3ccc(CN4CCOCC4)cc3)o2)nc2c(=O)n(C)c(=O)nc1-2` [Compound 78], the IC50 at CDC25B was 11.3 nM; on AKT3 [1], 57.9 nM; at AKT3 [2] it was 139 nM; in the data set on A2780 cell it was 79.8 nM.

Compound `Cn1nc(-c2ccc(-c3cccc(CNS(C)(=O)=O)c3)o2)nc2c(=O)n(C)c(=O)nc1-2` [Compound 2] came in with a melting point of 215.1 to 236.6 °C. Besides, the IC50 at CDC25B is 20.8 nM. The IC50 at AKT3 [1] is 72.6 nM. The IC50 at AKT3 [2] was 209 nM. Further, the IC50 in the data set on A2780 cell is 490 nM.

Consider `CONCc1ccc(-c2ccc(-c3nc4c(=O)n(C)c(=O)nc-4n(C4CCCC4)n3)o2)cc1` [Compound 115], for which the melting point turned out to be 140 °C. In addition, the IC50 on CDC25B is 13.2 nM. Besides, on AKT3 [1], the IC50 is 48.1 nM. Moreover, the IC50 at AKT3 [2] was 74.8 nM. The IC50 with A2780 cell was 46.9 nM.
